Data reported in ChEMBL document CHEMBL1201862, “PubChem BioAssay data set” (2004).
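1) Cells in 96-well plates. 2) Compound, 48 h, 5 concentrations. 3) Linear interpolation between surrounding doses. 4) Unreached endpoint = highest concentration. Here, GI50 denotes the concentration required for 50% inhibition of growth.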 Activity calls are given as the source filed them. Rule as the data show it: active = GI50 up to about 1.1 µM and inactive = higher.

Columns and labels:
Assay in all cases: DTP human tumour cell line panel, 48 h
CCRF-CEM = system: CCRF-CEM
HCT-116 = system: HCT-116
HT-29 = system: HT-29
MCF7 = system: MCF7
MDA-N = system: MDA-N
NCI-H23 = system: NCI-H23
NCI-H522 = system: NCI-H522
OVCAR-3 = system: OVCAR-3
OVCAR-4 = system: OVCAR-4
OVCAR-8 = system: OVCAR-8
PC-3 = system: PC-3
SF-268 = system: SF-268
SF-295 = system: SF-295
SK-MEL-28 = system: SK-MEL-28
SK-MEL-2 = system: SK-MEL-2
SNB-19 = system: SNB-19
SNB-75 = system: SNB-75
UACC-257 = system: UACC-257
UO-31 = system: UO-31
T47D = system: T47D

Row | SMILES | GI50 (CCRF-CEM) | GI50 (HCT-116) | GI50 (HT-29) | GI50 (MCF7) | GI50 (MDA-N) | GI50 (NCI-H23) | GI50 (NCI-H522) | GI50 (OVCAR-3) | GI50 (OVCAR-4) | GI50 (OVCAR-8) | GI50 (PC-3) | GI50 (SF-268) | GI50 (SF-295) | GI50 (SK-MEL-28) | GI50 (SK-MEL-2) | GI50 (SNB-19) | GI50 (SNB-75) | GI50 (UACC-257) | GI50 (UO-31) | GI50 (T47D)
1 | Nc1ccc2nc3n(c2c1)C(=O)c1ccccc1-3 | > 100 µM (inactive) | > 100 µM (inactive) | > 100 µM (inactive) | > 100 µM (inactive) | > 100 µM (inactive) | > 100 µM (inactive) | > 100 µM (inactive) | > 100 µM (inactive) | > 100 µM (inactive) | > 100 µM (inactive) | > 100 µM (inactive) | > 100 µM (inactive) | > 100 µM (inactive) | > 100 µM (inactive) | > 100 µM (inactive) | > 100 µM (inactive) | > 100 µM (inactive) | > 100 µM (inactive) | > 100 µM (inactive) | 
2 | CCN1CCC(O)(C(C(=O)O)c2ccccc2)CC1 (stereo not given) | > 100 µM (inactive) |  | > 100 µM (inactive) | > 100 µM (inactive) |  | > 100 µM (inactive) | > 100 µM (inactive) | > 100 µM (inactive) | > 100 µM (inactive) | > 100 µM (inactive) | > 100 µM (inactive) | > 100 µM (inactive) | > 100 µM (inactive) | > 100 µM (inactive) | > 100 µM (inactive) | > 100 µM (inactive) | > 100 µM (inactive) | > 100 µM (inactive) | > 100 µM (inactive) | > 100 µM (inactive)
3 | C1=N\CCOCC/N=C\c2ccc(cc2)OCc2cccc(n2)COc2ccc/1cc2 | > 100 µM (inactive) | > 100 µM (inactive) | > 100 µM (inactive) | 85.5 µM (inactive) | > 100 µM (inactive) | > 100 µM (inactive) | > 100 µM (inactive) | 37.6 µM (inactive) | > 100 µM (inactive) | > 100 µM (inactive) | > 100 µM (inactive) | > 100 µM (inactive) | 98.2 µM (inactive) | > 100 µM (inactive) | > 100 µM (inactive) | > 100 µM (inactive) | > 100 µM (inactive) | > 100 µM (inactive) | > 100 µM (inactive) | 
4 | NC(=O)CCC(NC(=O)c1c2ccccc2nc2ccccc12)C(=O)O (stereo not given) | > 100 µM (inactive) | > 100 µM (inactive) | > 100 µM (inactive) | > 100 µM (inactive) | > 100 µM (inactive) | > 100 µM (inactive) | > 100 µM (inactive) | > 100 µM (inactive) | > 100 µM (inactive) | > 100 µM (inactive) | > 100 µM (inactive) | > 100 µM (inactive) | > 100 µM (inactive) | > 100 µM (inactive) | > 100 µM (inactive) | > 100 µM (inactive) | > 100 µM (inactive) | > 100 µM (inactive) | > 100 µM (inactive) | 
5 | N#C/C(=C/n1c(=S)[nH]c2ccc([N+](=O)[O-])cc21)C(N)=O | > 100 µM (inactive) | > 100 µM (inactive) | > 100 µM (inactive) | > 100 µM (inactive) | > 100 µM (inactive) | > 100 µM (inactive) |  | > 100 µM (inactive) | > 100 µM (inactive) | > 100 µM (inactive) | > 100 µM (inactive) | > 100 µM (inactive) | > 100 µM (inactive) | > 100 µM (inactive) | > 100 µM (inactive) | > 100 µM (inactive) | 19.7 µM (inactive) | > 100 µM (inactive) | > 100 µM (inactive) | 
6 | CCOc1ccc(/C(C=O)=C(\Cl)c2ccc(OC)cc2)cc1 | 5.24 µM (inactive) | > 83.8 µM (inactive) | > 39.4 µM (inactive) | > 100 µM (inactive) |  | > 100 µM (inactive) | > 27.2 µM (inactive) | > 100 µM (inactive) | 9.82 µM (inactive) | > 100 µM (inactive) |  | > 100 µM (inactive) | > 100 µM (inactive) | > 100 µM (inactive) | > 100 µM (inactive) | > 91.8 µM (inactive) | 36.6 µM (inactive) | 9.35 µM (inactive) | > 57.1 µM (inactive) | 24.2 µM (inactive)
7 | Cc1nc2ccccc2c(=O)n1NC(=O)c1ccccc1O | > 100 µM (inactive) | > 100 µM (inactive) | > 100 µM (inactive) | > 100 µM (inactive) | > 100 µM (inactive) | > 100 µM (inactive) | > 100 µM (inactive) | > 100 µM (inactive) | > 100 µM (inactive) | > 100 µM (inactive) | > 100 µM (inactive) | > 100 µM (inactive) | > 100 µM (inactive) | > 100 µM (inactive) |  | > 100 µM (inactive) | > 100 µM (inactive) | > 100 µM (inactive) | > 100 µM (inactive) | 
8 | CCOC(=O)[C@H]1C[C@@H](C(=O)c2ccccc2)N2N=C(c3ccc(Br)cc3)C=C[C@H]12 |  | > 100 µM (inactive) |  | > 100 µM (inactive) |  | > 100 µM (inactive) |  | > 100 µM (inactive) | > 100 µM (inactive) | > 100 µM (inactive) | > 100 µM (inactive) | > 100 µM (inactive) | > 100 µM (inactive) | > 100 µM (inactive) | > 100 µM (inactive) | > 100 µM (inactive) | > 100 µM (inactive) | > 100 µM (inactive) | > 100 µM (inactive) | > 100 µM (inactive)
9 | O=C(O)CCC(=O)Oc1ccc(O)c2c1CCCC2=O | > 100 µM (inactive) | > 100 µM (inactive) | > 100 µM (inactive) |  |  | > 100 µM (inactive) | 66.5 µM (inactive) | > 100 µM (inactive) | > 100 µM (inactive) | > 100 µM (inactive) |  | > 100 µM (inactive) | > 100 µM (inactive) | > 100 µM (inactive) | > 100 µM (inactive) | > 100 µM (inactive) | 55.7 µM (inactive) | > 100 µM (inactive) | > 100 µM (inactive) | 
10 | Cn1ccnc1CCc1ccc(Cl)cc1Cl | > 100 µM (inactive) | > 100 µM (inactive) | 79.4 µM (inactive) |  |  | > 100 µM (inactive) | > 100 µM (inactive) | > 100 µM (inactive) | > 100 µM (inactive) | > 100 µM (inactive) |  | > 100 µM (inactive) | 79.1 µM (inactive) | > 100 µM (inactive) | > 100 µM (inactive) | > 100 µM (inactive) | > 100 µM (inactive) | > 100 µM (inactive) | 49.5 µM (inactive) | 
11 | COc1ccc(OC)c(/C=N/N=C2\C(=O)Nc3c(Cl)cc(Cl)cc32)c1 | 59.7 µM (inactive) | 52.4 µM (inactive) | 63.4 µM (inactive) | 46.1 µM (inactive) | 20 µM (inactive) | 48.4 µM (inactive) |  | 70.3 µM (inactive) | 38.2 µM (inactive) | 61 µM (inactive) | 38.8 µM (inactive) |  | 32.1 µM (inactive) | > 100 µM (inactive) | 21.2 µM (inactive) | > 100 µM (inactive) | 0.505 µM (active) | > 100 µM (inactive) | 41.6 µM (inactive) | 
12 | Cc1ccc(S(=O)(=O)NC(=O)NCCc2ccc(O)c(O)c2)cc1 |  | > 100 µM (inactive) | > 100 µM (inactive) | 61.8 µM (inactive) |  | > 100 µM (inactive) | > 100 µM (inactive) | > 100 µM (inactive) | > 100 µM (inactive) | 97.3 µM (inactive) | > 100 µM (inactive) | > 100 µM (inactive) | > 100 µM (inactive) | > 100 µM (inactive) | > 100 µM (inactive) | > 100 µM (inactive) | > 100 µM (inactive) |  | > 100 µM (inactive) | 
13 | Cc1cccc(NC(=O)/C(=N\N)C(c2cnc3ccc([N+](=O)[O-])cc3n2)[N+](=O)[O-])c1C (stereo not given) | > 100 µM (inactive) | > 100 µM (inactive) | > 100 µM (inactive) |  |  | > 100 µM (inactive) | 40.2 µM (inactive) | > 100 µM (inactive) | > 100 µM (inactive) | > 100 µM (inactive) |  | > 100 µM (inactive) | > 100 µM (inactive) | > 100 µM (inactive) | > 100 µM (inactive) | > 100 µM (inactive) | > 100 µM (inactive) | > 100 µM (inactive) | > 100 µM (inactive) | 
14 | CC1(C)C2CCC1(CC(=O)O)C(Cl)C2 (stereo not given) | > 100 µM (inactive) | > 100 µM (inactive) | > 100 µM (inactive) | > 100 µM (inactive) |  | > 100 µM (inactive) | > 100 µM (inactive) | > 100 µM (inactive) | > 100 µM (inactive) | > 100 µM (inactive) | > 100 µM (inactive) | > 100 µM (inactive) | > 100 µM (inactive) | > 100 µM (inactive) | > 100 µM (inactive) | > 100 µM (inactive) | > 100 µM (inactive) | > 100 µM (inactive) | > 100 µM (inactive) | > 100 µM (inactive)
15 | O=S(=O)(O)c1cc(O)c(/N=N/c2ccc(O)cc2O)c2ccccc12 | 40.6 µM (inactive) | 36.6 µM (inactive) | 8.97 µM (inactive) |  | > 100 µM (inactive) |  | 24.1 µM (inactive) | 27.2 µM (inactive) | > 100 µM (inactive) | 30.8 µM (inactive) | 53.5 µM (inactive) | 37.5 µM (inactive) | 61.8 µM (inactive) | > 100 µM (inactive) | > 100 µM (inactive) | > 100 µM (inactive) | > 100 µM (inactive) | > 100 µM (inactive) |  | 
16 | O=CC12c3ccccc3C(c3ccccc31)C1C(=O)NC(=O)C12 (stereo not given) | 41.7 µM (inactive) | 45.9 µM (inactive) | > 100 µM (inactive) | 0.953 µM (active) |  | > 100 µM (inactive) | 53 µM (inactive) | > 100 µM (inactive) | > 100 µM (inactive) | > 100 µM (inactive) | > 100 µM (inactive) | > 100 µM (inactive) | > 100 µM (inactive) | > 100 µM (inactive) | > 100 µM (inactive) | > 100 µM (inactive) | 39 µM (inactive) | > 100 µM (inactive) | 44.7 µM (inactive) | 75.3 µM (inactive)
